Test results from patent US8952024B2, “Herbicidal pyrimidone derivatives” (E I du Pont de Nemours and Company, priority 2009, dated 2015).

Tests used:
Test in all cases: Test B pre-/postemergence plant response
Type in all cases: in vivo
Settings in all cases: Postemergence
[1] = test system: downy bromegrass (Bromus tectorum)
Summary of the method: (§1)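 Greenhouse herbicide screen. Pre- and postemergence (1- to 4-leaf) spray of compound in solvent/surfactant mixture; loam–sand soil for pre, peat/vermiculite medium for post. Visual control rating 0–100 at 13 to 15 days after treatment.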

[2] = test system: giant foxtail (Setaria faberii)
Summary of the method: as §1

kochia (Kochia scoparia) = test system: kochia (Kochia scoparia)
Summary of the method: as §1

[3] = test system: green foxtail (Setaria viridis)
Summary of the method: as §1

[4] = test system: pigweed (Amaranthus retroflexus)
Summary of the method: as §1

[5] = test system: johnsongrass (Sorghum halepense)
Summary of the method: as §1

[6] = test system: yellow nutsedge (Cyperus esculentus)
Summary of the method: as §1

[7] = test system: woolly cupgrass (Eriochloa villosa)
Summary of the method: as §1

[8] = test system: goosegrass (Eleusine indica)
Summary of the method: as §1

[9] = test system: velvetleaf (Abutilon theophrasti)
Summary of the method: as §1

[10] = test system: lambsquarters (Chenopodium album)
Summary of the method: as §1

[11] = test system: wheat (Triticum aestivum)
Summary of the method: as §1

[12] = test system: large crabgrass (Digitaria sanguinalis)
Summary of the method: as §1

[13] = 31 g ai/ha, scale 0 to 100 (0 no effect, 100 complete control)
[14] = 62 g ai/ha, scale 0 (no effect) to 100 (complete control), 13 to 15 days
[15] = 125 g ai/ha, visual rating after 13 to 15 days, scale 0 (no effect) to 100 (complete control)

## Cc1ccc(-n2c(-c3ccccc3)ncc(C(=O)C3=C(O)CCCC3=O)c2=O)cc1 [Compound 8]
[1]; [13]
  Plant response rating, Bromegrass, Downy: 5
[1]; [14]
  Plant response rating, Bromegrass, Downy: 5
[1]; [15]
  Plant response rating, Bromegrass, Downy: 10
[1]; 250 g ai/ha, scale 0 to 100
  Bromegrass, Downy plant response rating: 10
[2]; [13]
  Plant response rating, Foxtail, Giant: 98
[2]; [14]
  Plant response rating, Foxtail, Giant: 100
[2]; [15]
  Plant response rating, Foxtail, Giant: 100
[2]; 250 g ai/ha, scale 0 to 100
  Foxtail, Giant plant response rating: 100
Kochia (Kochia scoparia); [13]
  Plant response rating, Kochia: 85
Kochia (Kochia scoparia); [14]
  Plant response rating, Kochia: 100
Kochia (Kochia scoparia); [15]
  Plant response rating, Kochia: 100
Kochia (Kochia scoparia); 250 g ai/ha, scale 0 to 100
  Kochia plant response rating: 100
[3]; [13]
  Plant response rating, Foxtail, Green: 40
[3]; [14]
  Plant response rating, Foxtail, Green: 70
[3]; [15]
  Plant response rating, Foxtail, Green: 85
[3]; 250 g ai/ha, scale 0 to 100
  Foxtail, Green plant response rating: 95
[4]; [13]
  Plant response rating, Pigweed: 98
[4]; [14]
  Plant response rating, Pigweed: 100
[4]; [15]
  Plant response rating, Pigweed: 100
[4]; 250 g ai/ha, scale 0 to 100
  Pigweed plant response rating: 100
[5]; [13]
  Plant response rating, Johnsongrass: 80
[5]; [14]
  Plant response rating, Johnsongrass: 98
[5]; [15]
  Plant response rating, Johnsongrass: 98
[5]; 250 g ai/ha, scale 0 to 100
  Johnsongrass plant response rating: 100
[6]; [13]
  Plant response rating, Nutsedge, Yellow: 65
[6]; [14]
  Plant response rating, Nutsedge, Yellow: 70
[6]; [15]
  Plant response rating, Nutsedge, Yellow: 80
[6]; 250 g ai/ha, scale 0 to 100
  Nutsedge, Yellow plant response rating: 85
[7]; [13]
  Plant response rating, Cupgrass, Woolly: 75
[7]; [14]
  Plant response rating, Cupgrass, Woolly: 80
[7]; [15]
  Plant response rating, Cupgrass, Woolly: 90
[7]; 250 g ai/ha, scale 0 to 100
  Cupgrass, Woolly plant response rating: 100
[8]; [13]
  Plant response rating, Goosegrass: 80
[8]; [14]
  Plant response rating, Goosegrass: 85
[8]; [15]
  Plant response rating, Goosegrass: 95
[8]; 250 g ai/ha, scale 0 to 100
  Goosegrass plant response rating: 100
[9]; [13]
  Plant response rating, Velvetleaf: 75
[9]; [14]
  Plant response rating, Velvetleaf: 80
[9]; [15]
  Plant response rating, Velvetleaf: 95
[9]; 250 g ai/ha, scale 0 to 100
  Velvetleaf plant response rating: 100
[10]; [13]
  Plant response rating, Lambsquarters: 95
[10]; [14]
  Plant response rating, Lambsquarters: 100
[10]; [15]
  Plant response rating, Lambsquarters: 100
[10]; 250 g ai/ha, scale 0 to 100
  Lambsquarters plant response rating: 100
[11]; [13]
  Plant response rating, Wheat: 25
[11]; [14]
  Plant response rating, Wheat: 30
[11]; [15]
  Plant response rating, Wheat: 35
[11]; 250 g ai/ha, scale 0 to 100
  Wheat plant response rating: 35
[12]; [13]
  Plant response rating, Crabgrass, Large: 70
[12]; [14]
  Plant response rating, Crabgrass, Large: 85
[12]; [15]
  Plant response rating, Crabgrass, Large: 90
[12]; 250 g ai/ha, scale 0 to 100
  Crabgrass, Large plant response rating: 100
